Test results from patent US4713374A, “Ganglioside derivatives” (priority 1984, dated 1987).

Assays:
[1] = tested on: PC12 cells; test: Neurite sprouting in PC12 cells; format: cell-based; details: 10^-6 M, serum-free vehicle with 50 ng/ml NGF, third day; controls 21.5
Method: The cells are then washed three times in a serum-free vehicle. […] This effect is evaluated by counting the number of cells with neurites at the third day.

[2] = tested on: (Na^+, K^+) ATPase of the neuronal membrane; test: (Na+,K+)ATPase activity of the neuronal membrane (rat brain P2 fraction); format: biochemical; details: concentration 50 (50 nM), incubation with neuronal membranes 37° C. two hours; controls 100; 120 min
Method: a. Preparation of the raw mitochondrial fraction of rat brain (Fraction P2):
The procedure used in the preparation of P2 fraction was taken from Morgan e coll., Biochem. Biophys. Acta 241, 37 (1971). (The various operations were carried out at 0° to 4° C.; the xg values are average centrifugal forces).
Adult male Sprague Dawley rats (supplied by Charles River) (body weight 150-175 g) were decapitated and their brains were immediately removed and washed in an ice cold isotonic solution. After excision of the cerebellum, the brains were homogenized by effecting 12 up and down movements in a motor-driven glass and Telfon homogenizer (declared radial clearance 0.25 mm; 800 r.p.m.) using 4 vol. of homogenizing solution (0.32M saccharose containing 1 mM potassium phosphate buffer and […] of disodium EDTA, pH 7.27). The homogenized substance, filtered through four layers of fine gauze, was centrifuged at 1000 r.p.m. for 15 minutes. The resulting pellet was washed with the same initial volume of homogenizing solution and centrifuged as described above. The gathered supernatants were centrifuged at 17,500 r.p.m. for 25 minutes (these conditions of gravitational centrifugal force were used to obtain the maximum enrichment of nervous terminations in the fraction) and the pellet was washed four times in 9 volumes (each time) of homogenizing solution and centrifuged (17,500 r.p.m. for 25 minutes).
The final pellet, known as "P2 fraction" contains as its principal component, whole mitochondria and nervous terminations. The final pellet was homogeneously resuspended with a suitable volume of homogenizing solution with a glass and Teflon homogenizer, and used immediately for the test. […]
ATPase activity was measured by spectrophotometry according to Wallick and coll. […] The (Na^+, K^+)ATPase activity is determined by the difference between the total ATPase activity and the dependent ATPase Mg^2+ activity measured in the presence of 3×10^-5 M of Ouabain. […] The ATPase activity was expressed as International Unit (I.U.) (μmoles hydrolized ATP/mg protein/min). […]

[3] = set-up: species or system Swiss mice; details: mouse, in vivo, iv
Method: Labelled ganglioside is prepared as described by Suzuki et al. [J. Lipid Res. 13, 687-690 (1972)] and modified by Ghidoni et al. [Ital. J. Biochem. 23, 320-328 (1974)]. The ethyl and isopropyl esters are prepared by esterification of this labelled ganglioside. The specific radioactivity is measured both of the ganglioside and esters.
Swiss mice obtained from Charles River (Calco), weighing about 20-25 g were treated by intravenous route with 10 μC of the products. 2-4-8-12-16 hours after administration, the animals were sacrificed by decapitation and their blood was gathered in heparinized flasks. The nonvolatile radioactivity was determined on blood samples by means of a Packard TRICARB scintillator and then identified with reference to ^3 H ganglioside and to the esters by TLC.

SMILES: CCCCCCCCCCCCC/C=C/[C@@H](O)[C@H](CO[C@@H]1O[C@H](CO)[C@@H](O[C@@H]2O[C@H](CO)[C@H](O[C@@H]3O[C@H](CO)[C@H](O)[C@H](O[C@@H]4O[C@H](CO)[C@H](O)[C@H](O)[C@H]4O)[C@H]3NC(C)=O)[C@H](O[C@]3(C(=O)OC)C[C@H](O)[C@@H](NC(C)=O)[C@H]([C@H](O)[C@H](O)CO)O3)[C@H]2O)[C@H](O)[C@H]1O)NC(=O)CCCCCCCCCCCCCCCCC [Methylic ester of GM1, Methyl ester of the ganglioside GM1]
- % of the no. of cells with neurites at 3rd day [1]: 35.7%
- % increase in (Na^+, K^+) ATPase activity [2]: 132%

SMILES: CCCCCCCCCCCCC/C=C/[C@@H](O)[C@H](CO[C@@H]1O[C@H](CO)[C@@H](O[C@@H]2O[C@H](CO)[C@H](O[C@@H]3O[C@H](CO)[C@H](O)[C@H](O[C@@H]4O[C@H](CO)[C@H](O)[C@H](O)[C@H]4O)[C@H]3NC(C)=O)[C@H](O[C@]3(C(=O)O)C[C@H](O)[C@@H](NC(C)=O)[C@H]([C@H](O)[C@H](O)CO)O3)[C@H]2O)[C@H](O)[C@H]1O)NC(=O)CCCCCCCCCCCCCCCCC [tritiated ganglioside]
- t/2 of first phase of blood kinetic curve [3]: about three

SMILES: CCCCCCCCCCCCC/C=C/[C@@H](O)[C@H](CO[C@@H]1O[C@H](CO)[C@@H](O[C@@H]2O[C@H](CO)[C@H](O[C@@H]3O[C@H](CO)[C@H](O)[C@H](O[C@@H]4O[C@H](CO)[C@H](O)[C@H](O)[C@H]4O)[C@H]3NC(C)=O)[C@H](O[C@]3(C(=O)O)C[C@H](O)[C@@H](NC(C)=O)[C@H]([C@H](O)[C@H](O)CO)O3)[C@H]2O)[C@H](O)[C@H]1O)NC(=O)CCCCCCCCCCCCCCCCC [Monosialoganglioside GM1, ganglioside GM1, reference compound]
- % of the no. of cells with neurites at 3rd day [1]: 34.8%
- % increase in (Na^+, K^+) ATPase activity [2]: 133%

SMILES: CCCCCCCCCCCCC/C=C/[C@@H](O)[C@H](CO[C@@H]1O[C@H](CO)[C@@H](O[C@@H]2O[C@H](CO)[C@H](O[C@@H]3O[C@H](CO)[C@H](O)[C@H](O[C@@H]4O[C@H](CO)[C@H](O)[C@H](O)[C@H]4O)[C@H]3NC(C)=O)[C@H](O[C@]3(C(N)=O)C[C@H](O)[C@@H](NC(C)=O)[C@H]([C@H](O)[C@H](O)CO)O3)[C@H]2O)[C@H](O)[C@H]1O)NC(=O)CCCCCCCCCCCCCCCCC [Amide of GM1, Amide of the ganglioside GM1]
- % of the no. of cells with neurites at 3rd day [1]: 33.3%
- % increase in (Na^+, K^+) ATPase activity [2]: 128%

SMILES: CCCCCCCCCCCCC/C=C/[C@@H](OC(C)=O)[C@H](CO[C@@H]1O[C@H](COC(C)=O)[C@@H](O[C@@H]2O[C@H](COC(C)=O)[C@H](O[C@@H]3O[C@H](COC(C)=O)[C@H](OC(C)=O)[C@H](O[C@@H]4O[C@H](COC(C)=O)[C@H](OC(C)=O)[C@H](OC(C)=O)[C@H]4OC(C)=O)[C@H]3NC(C)=O)[C@H](O[C@]3(C(N)=O)C[C@H](OC(C)=O)[C@@H](NC(C)=O)[C@H]([C@H](OC(C)=O)[C@@H](COC(C)=O)OC(C)=O)O3)[C@H]2OC(C)=O)[C@H](OC(C)=O)[C@H]1OC(C)=O)NC(=O)CCCCCCCCCCCCCCCCC [Amide of peracetylated GM1, Peracetylated derivative of the amide of the ganglioside GM1]
- % of the no. of cells with neurites at 3rd day [1]: 31.4%

SMILES: C=CCOC(=O)[C@@]1(O[C@@H]2[C@@H](O)[C@H](O[C@H]3[C@H](O)[C@@H](O)[C@H](OC[C@H](NC(=O)CCCCCCCCCCCCCCCCC)[C@H](O)/C=C/CCCCCCCCCCCCC)O[C@@H]3CO)O[C@H](CO)[C@@H]2O[C@@H]2O[C@H](CO)[C@H](O)[C@H](O[C@@H]3O[C@H](CO)[C@H](O)[C@H](O)[C@H]3O)[C@H]2NC(C)=O)C[C@H](O)[C@@H](NC(C)=O)[C@H]([C@H](O)[C@H](O)CO)O1 [Allylic ester of GM1, Allyl ester of the ganglioside GM1]
- % of the no. of cells with neurites at 3rd day [1]: 31.5%

SMILES: CCCCCCCCCCCCC/C=C/[C@@H](O)[C@H](CO[C@@H]1O[C@H](CO)[C@@H](O[C@@H]2O[C@H](CO)[C@H](O[C@@H]3O[C@H](CO)[C@H](O)[C@H](O[C@@H]4O[C@H](CO)[C@H](O)[C@H](O)[C@H]4O)[C@H]3NC(C)=O)[C@H](O[C@]3(C(=O)NCCCN(C)C)C[C@H](O)[C@@H](NC(C)=O)[C@H]([C@H](O)[C@H](O)CO)O3)[C@H]2O)[C@H](O)[C@H]1O)NC(=O)CCCCCCCCCCCCCCCCC [3-dimethylaminopropyl-1-amide of GM1, 3-dimethylaminopropyl-1-amide of the ganglioside GM1]
- % of the no. of cells with neurites at 3rd day [1]: 37.3%
